Series [1] in a line: Plasma concentration in Duncan Hartley guinea pig at 10 mg/kg, po. In kind it is ADME, organism-based, Cavia porcellus. More on the design: dose 10 mg/kg, route oral. The conditions noted are these: in vivo.
Series [2] can be described thus: Oral bioavailability in Sprague-Dawley rat at 1 mg/kg. It counts as ADME, organism-based. The conditions noted are these: in vivo.
Series [3] can be described thus: Mean residence time in Sprague-Dawley rat at 1 mg/kg, po. Details: dose 1 mg/kg, route oral. It counts as ADME, organism-based. Conditions: in vivo.
Series [4] in a line: Volume of distribution at steady state in Sprague-Dawley rat at 1 mg/kg, iv. The conditions noted are these: in vivo, read-out: Vdss. More on the design: dose 1 mg/kg, route intravenous. It counts as ADME, organism-based.

In series [1], `O=C(N[C@H]1CCC[C@H](CO)C1)C1CCN(c2nc3cc(Cl)c(-c4ccc(OC(F)(F)F)cc4)cc3o2)CC1` came in with a concentration of 510 nM. Besides, in series [2], the bioavailability (usually dose-corrected exposure relative to a reference, in per cent) was determined as 86%. Moreover, in series [3], the mean residence time (MRT) (in general, the average time that molecules of a dose stay in the body) amounted to 7.78 h. Further, the Vd in series [4] was found to be 6.4 L/kg.

In series [3], `O=C(N[C@H]1CCC[C@H](CO)C1)C1CCN(c2nc3cc(Cl)c(C(F)F)cc3o2)CC1` had an MRT of 0.39 h. Besides, the Vd in series [4] was 1.4 L/kg.

`O=C(N[C@H]1CCC[C@H](CO)C1)C1CCN(c2nc3cc(Cl)ccc3o2)CC1` came in with a bioavailability in series [2] of 66%. In series [3], this molecule gave a mean residence time MRT of 0.7 h. Also, in series [4], the Vd came to 0.72 L/kg.

As to `O=C(N[C@H]1CCC[C@H](CO)C1)C1CCN(c2nc3cc(Cl)c(-c4ccc(Cl)cc4)cc3o2)CC1`, the concentration in series [1] was 1200 nM. In addition, the bioavailability in series [2] came to 59%. In series [3], the MRT stood at 4.42 h. In series [4], the Vd was 3 L/kg.

For the molecule `COc1ccc2cc([C@H](C)C(=O)O)ccc2c1` [NAPROXEN], the concentration in series [1] is 154000 nM.

Take `CCc1cc2oc(N3CCC(C(=O)N[C@H]4CCC[C@H](CO)C4)CC3)nc2cc1Cl`: the MRT in series [3] came to 0.44 h. The Vd in series [4] was found to be 2.1 L/kg.

Turning to `CCOc1ccc(-c2cc3oc(N4CCC(C(=O)N[C@H]5CCC[C@H](CO)C5)CC4)nc3cc2Cl)cc1`, the bioavailability in series [2] is 17%. In series [3], this molecule showed an MRT of 6.26 h. Also, the Vd in series [4] came to 2.4 L/kg.

`O=C(N[C@H]1CCC[C@H](CO)C1)C1CCN(c2nc3cc(Cl)c(C(F)(F)F)cc3o2)CC1` returned a concentration in series [1] of 1600 nM. In series [2], this molecule came in with a bioavailability of 42%. Besides, the mean residence time MRT in series [3] is 7.22 h. The Vd in series [4] worked out at 14 L/kg.

(Values after ChEMBL document CHEMBL2390914, “Discovery and SAR of PF-4693627, a potent, selective and orally bioavailable mPGES-1 inhibitor for the potential treatment of inflammation” (Bioorg Med Chem Lett, 2013).)
